# Measured values from patent EP0097202A1, “Hydrazinopyridazine compound, process for production thereof, and use thereof as medicament” (TEIKOKU HORMONE MFG. CO., LTD., priority 1982, dated 1984).
# Where two headings read alike, the source gives them in different places.
# Legend:
# Format in all cases: in vivo, male Wistar rats
# β1-adrenoceptors = target: T1, β1-adrenoceptors (Rattus norvegicus, UniProt P18090); test: β-adrenoceptor blocking activity: inhibition of the isoproterenol-induced increase in heart rate in anesthetized rats; settings: iv, 0.05 h
# T1 construct: Experiments were done using male Wistar rats weighing between 300 and 400 g, anesthetized with sodium pentobarbital; from tissue; host or cells: whole animal (anesthetized male Wistar rats), cardiac response in vivo
# Protocol: (§1) Experiments were done using male Wistar rats weighing between 300 and 400 g, anesthetized with sodium pentobarbital (60 mg/kg i.p.). The blood pressure was directly measured by connecting a cannula inserted in the femoral artery to a pressure transducer and the heart rate was calculated from the pulse waves of the blood pressure tracings. Each value shown here was obtained from three animals. The test compounds were individually dissolved in physiological saline solution or a 0.01 N aqueous solution of hydrochloric acid.
# The increased heart rate before injection of the test compound was represented by H1. Three minutes after i.v. injection of the test compound, isoproterenol (0.1 µg/kg i.v.) was again administered and then the change in heart rate was measured. The maximum increase in heart rate after injection of the test compound was designated as H2. From these values, the percent inhibition of the change in heart rate was calculated in accordance with the following equation.
# Percent inhibition of the heart rate [formula]
# (§2) By repeating the procedure mentioned above at various doses of the test compounds, dose-response curves were prepared.
# [1] = vasodilating activity (hypotensive activity): maximum fall in blood pressure in anesthetized rats; settings: maximum fall in blood pressure during 40 minutes after 1 mg/kg i.v., three animals
# Protocol: as §1
# Each test compound dissolved in physiological saline solution or 0.01 N hydrochloric acid was intravenously injected into rats in a fixed dose of 1 mg/kg and the blood pressure was continuously monitored for 40 minutes. The maximum fall in blood pressure during this period was determined and taken as the hypotensive activity of each compound.
# β2-adrenoceptor = test: β-adrenoceptor blocking activity: inhibition of the isoproterenol-induced fall in blood pressure in anesthetized rats; settings: 50 % inhibition of fall in blood pressure by isoproterenol 0.1 µg/kg i.v.
# Protocol: as §1, §2
# [2] = read-out: β-adrenoceptor blocking action ID50
# T1 sequence (P18090 whole entry): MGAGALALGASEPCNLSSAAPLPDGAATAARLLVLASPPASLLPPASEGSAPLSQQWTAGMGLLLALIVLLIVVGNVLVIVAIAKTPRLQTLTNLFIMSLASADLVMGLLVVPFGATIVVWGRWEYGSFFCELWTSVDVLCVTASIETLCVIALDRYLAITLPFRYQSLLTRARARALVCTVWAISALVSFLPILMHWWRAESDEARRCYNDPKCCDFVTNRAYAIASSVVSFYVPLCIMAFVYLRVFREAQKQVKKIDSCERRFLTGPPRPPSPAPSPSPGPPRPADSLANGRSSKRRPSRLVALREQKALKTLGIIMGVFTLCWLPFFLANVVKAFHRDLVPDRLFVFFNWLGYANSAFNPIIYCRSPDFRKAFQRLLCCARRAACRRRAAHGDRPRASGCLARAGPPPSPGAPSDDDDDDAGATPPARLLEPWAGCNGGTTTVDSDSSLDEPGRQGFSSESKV
SMILES,ED50 (β1-adrenoceptors; [2]) [mg/kg],Hypotensive action [1],ED50 (β1-adrenoceptors; read-out: β-adrenoceptor blocking action ID50 β1) [mg/kg],β-adrenoceptor blocking action ID50 β2 (β2-adrenoceptor)
"CC(C)(COc1ccc(NN)nn1)NCC(O)COc1ccccc1 (stereo not shown) [A, 1-penoxy-3-[1,1-dimethyl-2-(3-hydrozino-6-pyridazinyloxy)ethylamino]-2-propanol]",0.04,++ (a fall in blood pressure of 25 to 34 mmHg),,
"CC(C)NCC(O)COc1ccc(CC(N)=O)cc1 (stereo not shown) [Atenolol, reference compound]",,,0.05,1.5 mg/kg i.v.
"CC(C)(COc1ccc(NN)nn1)NCC(O)COc1ccccc1Cl (stereo not shown) [B, 1-(2-chlorophenoxy)-3-[1,1-dimethyl-2-(3-hydrozino-6-pyridazinyloxy)ethylamino]-2-propanol]",0.008,+++ (35 mmHg or more),,0.23 mg/kg i.v.
"Cc1ccccc1OCC(O)CNC(C)(C)COc1ccc(NN)nn1 (stereo not shown) [C, 1-(2-methylphenoxy)-3-[1,1-dimethyl-2-(3-hydrazino-6-pyridazinyloxy)ethylamino]-2-propanol]",0.015,+++ (35 mmHg or more),,0.45 mg/kg i.v.
"CCc1ccccc1OCC(O)CNC(C)(C)COc1ccc(NN)nn1 (stereo not shown) [D, 1-(2-ethylphenoxy)-3-[1,1-dimethyl-2-(3-hydrazino-6-pyridazinyloxy)ethylamino]-2-propanol]",0.2,+++ (35 mmHg or more),,
"CCCc1ccccc1OCC(O)CNC(C)(C)COc1ccc(NN)nn1 (stereo not shown) [E, 1-(2-propylphenoxy)-3-[1,1-dimethyl-2-(3-hydrazino-6-pyridazinyloxy)ethylamino]-2-propanol]",0.2,++ (a fall in blood pressure of 25 to 34 mmHg),,
"Cc1cccc(OCC(O)CNC(C)(C)COc2ccc(NN)nn2)c1Cl (stereo not shown) [F, 1-(2-chloro-3-methylphenoxy)-3-[1,1-dimethyl-2-(3-hydrazino-6-pyridazinyloxy)ethylamino]-2-propanol]",0.08,++ (a fall in blood pressure of 25 to 34 mmHg),,
"CC(C)=NNc1ccc(OCC(C)(C)NCC(O)COc2cc(C)ccc2Cl)nn1 (stereo not shown) [G, 1-(2-chloro-5-methylphenoxy)-3-[1,1-dimethyl-2-(3-isopropylidenehydrazino-6-pyridazinyloxy)ethylamino]-2-propanol]",0.15,++ (a fall in blood pressure of 25 to 34 mmHg),,
"Cc1ccc(Cl)c(OCC(O)CNC(C)(C)COc2ccc(NN)nn2)c1 (stereo not shown) [H, 1-(2-chloro-5-methylphenoxy)-3-[1,1-dimethyl-2-(3-hydrazino-6-pyridazinyloxy)ethylamino]-2-propanol]",0.15,++ (a fall in blood pressure of 25 to 34 mmHg),,
"CC(C)(COc1ccc(NN)nn1)NCC(O)COc1ccccc1C#N (stereo not shown) [I, 1-(2-cyanophenoxy)-3-[1,1-dimethyl-2-(3-hydrazino-6-pyridazinyloxy)ethylamino]-2-propanol]",0.02,+++ (35 mmHg or more),,0.1 mg/kg i.v.
"CC(C)(COc1ccc(NN)nn1)NCC(O)COc1cc(Cl)ccc1C#N (stereo not shown) [J, 1-(2-cyano-5-chlorophenoxy)-3-[1,1-dimethyl-2-(3-hydrazino-6-pyridazinyloxy)ethylamino]-2-propanol]",0.12,++ (a fall in blood pressure of 25 to 34 mmHg),,
"Cc1ccc(C#N)c(OCC(O)CNC(C)(C)COc2ccc(NN)nn2)c1 (stereo not shown) [K, 1-(2-cyano-5-methylphenoxy)-3-[1,1-dimethyl-2-(3-hydrazino-6-pyridazinyloxy)ethylamino]-2-propanol]",0.05,+++ (35 mmHg or more),,0.1 mg/kg i.v.
"COCc1ccccc1OCC(O)CNC(C)(C)COc1ccc(NN)nn1 (stereo not shown) [L, 1-(2-methoxymethylphenoxy)-3-[1,1-dimethyl-2-(3-hydrazino-6-pyridazinyloxy)ethylamino]-2-propanol]",0.03,+++ (35 mmHg or more),,
"CCOCc1ccccc1OCC(O)CNC(C)(C)COc1ccc(NN)nn1 (stereo not shown) [M, 1-(2-ethoxymethylphenoxy)-3-[1;1-dimethyl-2-(3-hydrazino-6-pyridazinyloxy)ethylamino]-2-propanol]",0.06,++ (a fall in blood pressure of 25 to 34 mmHg),,
"COCCc1ccccc1OCC(O)CNC(C)(C)COc1ccc(NN)nn1 (stereo not shown) [N, 1-[2-(2-methoxyethyl)phenoxy]-3-[1,1-dimethyl-2-(3-hydrazino-6-pyridazinyloxy)ethylamino]-2-propanol]",0.08,+++ (35 mmHg or more),,
CCOCCc1ccccc1OCC(O)CNC(C)(C)COc1ccc(NN)nn1 (stereo not shown) [O],0.16,++ (a fall in blood pressure of 25 to 34 mmHg),,
"C=CCOc1ccccc1OCC(O)CNC(C)(C)COc1ccc(NN)nn1 (stereo not shown) [P, 1-(2-allyloxyphenoxy)-3-[1,1-dimethyl-2-(3-hydrazino-6-pyridazinyloxy)ethylamino]-2-propanol]",0.1,++ (a fall in blood pressure of 25 to 34 mmHg),,
"Cc1ccccc1OCC(O)CNC(C)(C)CSc1ccc(NN)nn1 (stereo not shown) [Q, 1-(2-methylphenoxy)-3-[1,1-dimethyl-2-(3-hydrazino-6-pyridazinylthio)ethylamino]-2-propanol]",0.04,++ (a fall in blood pressure of 25 to 34 mmHg),,
"C#Cc1ccccc1OCC(O)CNC(C)(C)COc1ccc(NN)nn1 (stereo not shown) [R, 1-(2-ethinylphenoxy)-3-[1,1-dimethyl-2-(3-hydrazino-6-pyridazinyloxy)ethylamino]-2-propanol]",0.02,+++ (35 mmHg or more),,No antagonistic action at 0.1
